Tested on: freshly isolated human lymphoma B cells
Assay: Rituximab-mediated CDC of freshly isolated human lymphoma B cells, MTT assay
Type: cell-based
Conditions: 10 mg/ml MβCD 30 minutes; 400 μg/ml rituximab, 10% serum
Method: To extend these observations the influence of cholesterol depletion was studied in freshly isolated human lymphoma B cells. Tumor cells of three mantle cell lymphomas and a small B cell lymphoma were isolated out of bone marrow (10 ml) aspirated from the hip. The cell suspension was diluted twice with PBS (final volume 20 ml). 3 ml of Histopaque-1077 (Sigma Aldrich) was pipetted into two conical centrifuge tubes. 10 ml of diluted bone marrow was slowly layered on the top of Histopaque layer. Probes were centrifuged (400 g, 15 minutes, 25° C.) without brake. The white blood cell ring and plasma were isolated and washed twice with PBS. The leucocyte pellet was resuspeneded in 5 ml medium (RPMI or OptiMEM) and counted in a Bürker chamber using Turk dye. Cells were incubated with either diluent or MβCD (10 mg/ml) for 30 minutes. Treated cells were analyzed for their capacity to bind CD20 mAb as well as sensitivity for rituximab-mediated CDC induction.
For the rituximab-mediated CDC human CD20-positive lymphoma B cells were incubated with either diluent or 10 mg/ml MβCD for 30 minutes. […] The cytotoxic effects were measured in a MTT assay.

Substance: rituximab: anti-CD20 antibody Rituxan/MabThera, type I
- rituximab-mediated CDC: significantly decreased

Source: patent US20110091473A1, “NOVEL ANTIBODY THERAPIES” (GENMAB A/S, priority 2007, published 2011)
